# Data published in US9890142B2, “PDE4 inhibitor” (Meiji Seika Pharma Co., Ltd., priority 2013, dated 2018).
# Tested on: PDE4
# Test: Evaluation of PDE4 inhibition (scintillation proximity assay)
# Assay type: biochemical
# Conditions: inhibition rate relative to control, test compound at 1 μM
# Procedure, shortened: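 PDE4 was incubated 120 min at room temperature with [3H]-cAMP and compound in 50 mM Tris-HCl pH 7.5, 8.3 mM MgCl2, 1.7 mM EDTA, 0.3 mg/mL BSA. Product captured on ZnSO4-containing YSi-SPA beads and counted; inhibition calculated against DMSO control after no-enzyme blank subtraction.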
row,SMILES,PDE4 inhibitory activity (1 μM (%))
1,"CCNC(=O)c1cc(Cl)cc2nc(N3CCNC[C@@H]3C)oc12 [Example 101, (S)-5-Chloro-7-ethylaminocarbonyl-2-(2-methylpiperazin-1-yl)benzoxazole]",27%
2,"C[C@@H]1CNCCN1c1nc2c(-c3ccco3)cc(Cl)cc2o1 [Example 165, (R)-6-Chloro-4-(furan-2-yl)-2-(2-methylpiperazin-1-yl)benzoxazole]",31%
3,"COc1c(Cl)cc(-c2ccccn2)c2oc(N3CCNC[C@@H]3C)nc12 [Example 153, (S)-5-Chloro-4-methoxy-2-(2-methylpiperazin-1-yl)-7-(pyridin-2-yl)benzoxazole]",93%
4,"CC(=O)c1cc(Cl)cc2nc(N3CCNC[C@@H]3C)oc12 [Example 3, (S)-7-Acetyl-5-chloro-2-(2-methylpiperazin-1-yl)benzoxazole]",50%
5,"C[C@H]1CNCCN1c1nc2c(F)c(F)c(F)c(-c3ccccn3)c2o1 [Example 122, (S)-4,5,6-Trifluoro-2-(2-methylpiperazin-1-yl)-7-(pyridin-2-yl)benzoxazole]",79%
6,"C[C@H]1CNCCN1c1nc2cc(Cl)cc(-c3ncc(Cl)s3)c2o1 [Example 74, (S)-5-Chloro-7-(5-chlorothiazol-2-yl)-2-(2-methylpiperazin-1-yl)benzoxazole]",83%
7,"C[C@H]1CNCCN1c1nc2c(C(F)(F)F)c(Cl)cc(-c3ccccn3)c2o1 [Example 82, (S)-5-Chloro-2-(2-methylpiperazin-1-yl)-7-(pyridin-2-yl)-4-(trifluoromethyl)benzoxazole]",94%
8,"C[C@H]1CNCCN1c1nc2cc(F)cc(-c3nccs3)c2o1 [Example 103, (S)-5-Fluoro-2-(2-methylpiperazin-1-yl)-7-(thiazol-2-yl)benzoxazole]",96%
9,"C[C@H]1CNCCN1c1nc2cc(Br)ccc2o1 [Example 167, (S)-5-Bromo-2-(2-methylpiperazin-1-yl)benzoxazole]",16%
10,"C[C@H]1CNCCN1c1nc2cc(Cl)cc(-c3ccccc3)c2o1 [Example 19, (S)-5-Chloro-2-(2-methylpiperazin-1-yl)-7-phenylbenzoxazole]",76%
11,"C[C@H]1CNCCN1c1nc2cc(Cl)cc(CC3CCCCC3)c2o1 [Example 51, (S)-5-Chloro-7-(cyclohexylmethyl)-2-(2-methylpiperazin-1-yl)-benzoxazole]",12%
12,"C[C@H]1CNCCN1c1nc2cc(Cl)cc(-c3ncccc3C#N)c2o1 [Example 66, (S)-5-Chloro-7-(3-cyanopyridin-2-yl)-2-(2-methylpiperazin-1-yl)benzoxazole]",57%
13,"C[C@H]1CNCCN1c1nc2cc(Cl)cc(-c3ccc(F)cn3)c2o1 [Example 73, (S)-5-Chloro-7-(5-fluoropyridin-2-yl)-2-(2-methylpiperazin-1-yl)benzoxazole]",93%
14,"C[C@H]1CNCCN1c1nc2c(S(C)(=O)=O)c(Cl)cc(-c3ccccn3)c2o1 [Example 151, (S)-5-Chloro-2-(2-methylpiperazin-1-yl)-4-(methylsulfonyl)-7-(pyridin-2-yl)benzoxazole]",76%
15,"COc1c(Cl)cc(-c2nccs2)c2oc(N3CCNC[C@@H]3C)nc12 [Example 155, (S)-5-Chloro-4-methoxy-2-(2-methylpiperazin-1-yl)-7-(thiazol-2-yl)benzoxazole]",96%
16,"CCCCc1cc(Cl)cc2nc(N3CCNC[C@@H]3C)oc12 [Example 32, (S)-7-n-Butyl-5-chloro-2-(2-methylpiperazin-1-yl)benzoxazole]",62%
17,"Cc1c(Cl)cc2nc(N3CCNC[C@@H]3C)oc2c1-c1nccs1 [Example 138, (S)-5-Chloro-6-methyl-2-(2-methylpiperazin-1-yl)-7-(thiazol-2-yl)benzoxazole]",86%
18,"C[C@H]1CNCCN1c1nc2cc(Cl)cc(-n3nccn3)c2o1 [Example 45, (S)-5-Chloro-2-(2-methylpiperazin-1-yl)-7-(2H-1,2,3-triazol-2-yl)benzoxazole]",87%
19,"C[C@H]1CNCCN1c1nc2c(F)c(F)cc(-n3cccn3)c2o1 [Example 91, (S)-4,5-Difluoro-2-(2-methylpiperazin-1-yl)-7-(1H-pyrazol-1-yl)benzoxazole]",89%
